# Source: article PMC10648349, “Aromatic Diboronic Acids as Effective KPC/AmpC Inhibitors” (Molecules, 2023)
# How the values were obtained:
# [1] = system: C. parapsilosis ATCC 22019; experiment: antifungal activity (disc-diffusion, MIC, MFC); type: cell-based, Candida parapsilosis; details: Lodderomyces parapsilosis, ATCC22019; for MIC: fluconazole by Etest; for zone of inhibition at 0.4 mg/disc: 0.4 mg per disc, 9 mm disc (fluconazole 0.025 mg, 6 mm disc), - no zone, read-out: Diameter of inhibition zone
# In short: (§1)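 Disc-diffusion, MIC, MBC (bacteria) and MFC (yeasts) were determined per EUCAST and CLSI recommendations. Diboronic acids were dissolved in DMSO and applied at 0.4 mg per disc for diffusion. References: nitrofurantoin (Gram-negative rods), linezolid (Gram-positive), fluconazole (fungi).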
# [2] = system: C. guilliermondii IBA 155; experiment: antifungal activity (disc-diffusion, MIC, MFC); type: cell-based, Candida guilliermondii; details: Meyerozyma guilliermondii, IBA155; for MIC: fluconazole by Etest; for zone of inhibition at 0.4 mg/disc: 0.4 mg per disc, 9 mm disc (fluconazole 0.025 mg, 6 mm disc), - no zone, read-out: Diameter of inhibition zone
# In short: as §1
# C. krusei ATCC 6258 = experiment: antifungal activity (disc-diffusion, MIC, MFC); type: cell-based, Candida krusei; details: Pichia kudriavzevii, ATCC6258; for MIC: fluconazole by Etest; for zone of inhibition at 0.4 mg/disc: 0.4 mg per disc, 9 mm disc (fluconazole 0.025 mg, 6 mm disc), - no zone, read-out: Diameter of inhibition zone
# In short: as §1
# C. albicans ATCC 90028 = experiment: antifungal activity (disc-diffusion, MIC, MFC); type: cell-based; details: Candida albicans, ATCC90028; for MIC: fluconazole by Etest
# In short: as §1
# C. tropicalis ATCC 750 = experiment: antifungal activity (disc-diffusion, MIC, MFC); type: cell-based; details: Candida tropicalis, ATCC750; for MIC: fluconazole by Etest
# In short: as §1
# C. tropicalis IBA 171 = experiment: antifungal activity (disc-diffusion, MIC, MFC); type: cell-based; details: Candida tropicalis, IBA171; for MIC: fluconazole by Etest
# In short: as §1
# S. cerevisiae ATCC 9763 = experiment: antifungal activity (disc-diffusion, MIC, MFC); type: cell-based; details: Saccharomyces cerevisiae, ATCC9763; for MIC: fluconazole by Etest; for zone of inhibition at 0.4 mg/disc: 0.4 mg per disc, 9 mm disc (fluconazole 0.025 mg, 6 mm disc), - no zone, read-out: Diameter of inhibition zone
# In short: as §1
# E. coli 76 KPC-2(+) = experiment: MIC of tested agent alone, microdilution; type: cell-based; details: Escherichia coli; read-out: MIC of agent alone
# In short: (§2)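 Checkerboard synergy testing crossed two-fold dilutions of the tested agents or PBA (4–16 mg/L) with β-lactam dilutions (1–64 mg/L), and antibiotic MICs were read at each agent level. FICI was derived from the interface wells. Separately, each agent's own MIC came from standard microdilution.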
# E. coli 77 CMY-2(+) = experiment: MIC of tested agent alone, microdilution; type: cell-based; details: Escherichia coli; read-out: MIC of agent alone
# In short: as §2
# [3] = system: K. pneumoniae 81 KPC-3(+); experiment: MIC of tested agent alone, microdilution; type: cell-based; details: Klebsiella pneumoniae; read-out: MIC of agent alone
# In short: as §2
# [4] = system: K. pneumoniae 83 KPC-3(+), CTX-M-3(+); experiment: MIC of tested agent alone, microdilution; type: cell-based; details: Klebsiella pneumoniae; read-out: MIC of agent alone
# In short: as §2
# [5] = system: K. pneumoniae ATCC BAA-1705 KPC-2(+); experiment: MIC of tested agent alone, microdilution; type: cell-based; details: Klebsiella pneumoniae, ATCCBAA1705; read-out: MIC of agent alone
# In short: as §2
# [6] = system: P. aeruginosa MUW 700 AmpC(+); experiment: MIC of tested agent alone, microdilution; type: cell-based; details: Pseudomonas aeruginosa; read-out: MIC of agent alone
# In short: as §2
# [7] = system: K. pneumoniae ATCC BAA 1705 KPC-2-positive; experiment: combination disc test CDT-KPC; type: cell-based; details: Klebsiella pneumoniae, BAA1705, read-out: Diameter of inhibition zone, MEM-10 disc with agent; for zone of inhibition at 300 µg/disc: agent 0.3 mg per disc; for zone of inhibition at 100 µg/disc: agent 0.1 mg per disc
# [8] = system: P. aeruginosa MUW 700 cAmpC-positive; experiment: combination disc test CDT-AmpC; type: cell-based; details: Pseudomonas aeruginosa, read-out: Diameter of inhibition zone, CAZ-30 disc with agent; for zone of inhibition at 100 µg/disc: agent 0.1 mg per disc
# [9] = system: E. coli 77 CMY-2-positive; experiment: combination disc test CDT-AmpC; type: cell-based; details: Escherichia coli, read-out: Diameter of inhibition zone, CAZ-30 disc with agent; for zone of inhibition at 100 µg/disc: agent 0.1 mg per disc
# [10] = system: P. aeruginosa MUW 700 cAmpC-positive; experiment: checkerboard microdilution, antibiotic plus tested agent; type: cell-based, Pseudomonas aeruginosa
# In short: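 Read-out is the antibiotic MIC with agent present, plus FICI = combined/alone MIC ratios summed for both partners. Meropenem pairs served for carbapenemase strains and ceftazidime pairs for the AmpC strain. Agent or PBA was tested at 4–16 mg/L.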
# [11] = MTT-based viability assay; type: cell-based; details: human, MRC-5 human fibroblasts, 72 h, read-out: Viability of MRC-5 cells (% of viable cells ± SD)
# In short: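 MRC-5 human fibroblasts grown in MEME with 10% FBS at 37 °C, 5% CO2, tested by MTT with absorbance read at 570 nm. Viability given as percent of untreated control cells, in triplicate.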
smiles,measurement,setting,value
OB(O)c1cc(F)cc(B(O)O)c1 [2b],MIC,[1],> 400 µg/mL
same,MIC,[2],> 400 µg/mL
same,MIC,C. krusei ATCC 6258,> 400 µg/mL
same,MIC,C. albicans ATCC 90028,> 400 µg/mL
same,MIC,C. tropicalis ATCC 750,> 400 µg/mL
same,MIC,C. tropicalis IBA 171,> 400 µg/mL
same,MIC,S. cerevisiae ATCC 9763,> 400 µg/mL
same,MIC,E. coli 76 KPC-2(+),400 µg/mL
same,MIC,E. coli 77 CMY-2(+),400 µg/mL
same,MIC,[3],> 400 µg/mL
same,MIC,[4],> 400 µg/mL
same,MIC,[5],> 400 µg/mL
same,MIC,[6],> 400 µg/mL
same,zone of inhibition at 300 µg/disc,[7],19 mm
same,zone of inhibition at 100 µg/disc,[8],18 mm
same,zone of inhibition at 100 µg/disc,[9],21 mm
same,Average FICI with ceftazidime,[10],0.35
same,Interpretation of the average FICI with ceftazidime,[10],"S (FICI ≤ 0.5, synergy)"
same,Interpretation of the lowest FICI with ceftazidime,[10],"S (FICI ≤ 0.5, synergy)"
same,The lowest FICI with ceftazidime,[10],0.26
same,"viability at 72 h, 12.5 mg/L",[11],108 ± 1.1%
same,"viability at 72 h, 25 mg/L",[11],87.9 ± 1.7%
same,"viability at 72 h, 50 mg/L",[11],73.8 ± 1.9%
OB(O)c1ccc(B(O)O)c(F)c1 [1b],zone of inhibition at 0.4 mg/disc,[1],12 mm
same,MIC,[1],100 µg/mL
same,zone of inhibition at 0.4 mg/disc,[2],24 mm
same,MIC,[2],400 µg/mL
same,zone of inhibition at 0.4 mg/disc,C. krusei ATCC 6258,22 mm
same,MIC,C. krusei ATCC 6258,100 µg/mL
same,MIC,C. albicans ATCC 90028,> 400 µg/mL
same,MIC,C. tropicalis ATCC 750,> 400 µg/mL
same,MIC,C. tropicalis IBA 171,400 µg/mL
same,zone of inhibition at 0.4 mg/disc,S. cerevisiae ATCC 9763,14 mm
same,MIC,S. cerevisiae ATCC 9763,25 µg/mL
same,MIC,E. coli 76 KPC-2(+),400 µg/mL
same,MIC,E. coli 77 CMY-2(+),400 µg/mL
same,MIC,[3],> 400 µg/mL
same,MIC,[4],> 400 µg/mL
same,MIC,[5],> 400 µg/mL
same,MIC,[6],> 400 µg/mL
same,zone of inhibition at 100 µg/disc,[7],11 mm
same,zone of inhibition at 100 µg/disc,[8],20 mm
same,zone of inhibition at 100 µg/disc,[9],20 mm
same,Average FICI with ceftazidime,[10],0.18
same,Interpretation of the average FICI with ceftazidime,[10],"S (FICI ≤ 0.5, synergy)"
same,Interpretation of the lowest FICI with ceftazidime,[10],"S (FICI ≤ 0.5, synergy)"
same,The lowest FICI with ceftazidime,[10],0.14
same,"viability at 72 h, 12.5 mg/L",[11],140 ± 6.7%
same,"viability at 72 h, 25 mg/L",[11],140 ± 8.3%
same,"viability at 72 h, 50 mg/L",[11],117 ± 1.3%
OB(O)c1ccc(C(F)(F)F)cc1B(O)O [3e],zone of inhibition at 0.4 mg/disc,[1],30 mm
same,MIC,[1],12.5 µg/mL
same,MFC,[2],400 µg/mL
same,zone of inhibition at 0.4 mg/disc,[2],40 mm
same,MIC,[2],3.12 µg/mL
same,zone of inhibition at 0.4 mg/disc,C. krusei ATCC 6258,23 mm
same,MIC,C. krusei ATCC 6258,25 µg/mL
same,MFC,C. albicans ATCC 90028,400 µg/mL
same,MIC,C. albicans ATCC 90028,6.25 µg/mL
same,zone of inhibition at 0.4 mg/disc,"C. tropicalis ATCC 750; 0.4 mg per disc, 9 mm disc (fluconazole 0.025 mg, 6 mm disc), - no zone, read-out: Diameter of inhibition zone",28 mm
same,MIC,C. tropicalis ATCC 750,12.5 µg/mL
same,MFC,C. tropicalis IBA 171,400 µg/mL
same,MIC,C. tropicalis IBA 171,6.25 µg/mL
same,zone of inhibition at 0.4 mg/disc,S. cerevisiae ATCC 9763,23 mm
same,MIC,S. cerevisiae ATCC 9763,50 µg/mL
same,MIC,E. coli 76 KPC-2(+),> 400 µg/mL
same,MIC,E. coli 77 CMY-2(+),> 400 µg/mL
same,MIC,[3],> 400 µg/mL
same,MIC,[4],> 400 µg/mL
same,MIC,[5],> 400 µg/mL
same,MIC,[6],> 400 µg/mL
same,zone of inhibition at 300 µg/disc,[7],6 mm
same,zone of inhibition at 300 µg/disc,[8]; agent 0.3 mg per disc,17 mm
same,zone of inhibition at 300 µg/disc,[9]; agent 0.3 mg per disc,17 mm
same,"viability at 72 h, 12.5 mg/L",[11],98.8 ± 25.6%
same,"viability at 72 h, 25 mg/L",[11],92.9 ± 2.7%
same,"viability at 72 h, 50 mg/L",[11],64.4 ± 0.4%
OB(O)c1cc(F)c(F)c(B(O)O)c1 [2d],MIC,[1],> 400 µg/mL
same,MIC,[2],400 µg/mL
same,MIC,C. krusei ATCC 6258,400 µg/mL
same,MIC,C. albicans ATCC 90028,400 µg/mL
same,MIC,C. tropicalis ATCC 750,> 400 µg/mL
same,MIC,C. tropicalis IBA 171,> 400 µg/mL
same,MIC,S. cerevisiae ATCC 9763,> 400 µg/mL
same,MIC,E. coli 76 KPC-2(+),200 µg/mL
same,MIC,E. coli 77 CMY-2(+),200 µg/mL
same,MIC,[3],400 µg/mL
same,MIC,[4],400 µg/mL
same,MIC,[5],400 µg/mL
same,MIC,[6],> 400 µg/mL
same,zone of inhibition at 100 µg/disc,[7],6 mm
same,zone of inhibition at 100 µg/disc,[8],18 mm
same,zone of inhibition at 100 µg/disc,[9],21 mm
same,Average FICI with ceftazidime,[10],0.35
same,Interpretation of the average FICI with ceftazidime,[10],"S (FICI ≤ 0.5, synergy)"
same,Interpretation of the lowest FICI with ceftazidime,[10],"S (FICI ≤ 0.5, synergy)"
same,The lowest FICI with ceftazidime,[10],0.26
same,"viability at 72 h, 12.5 mg/L",[11],107 ± 7.6%
same,"viability at 72 h, 25 mg/L",[11],88 ± 4.3%
same,"viability at 72 h, 50 mg/L",[11],75.2 ± 9.4%
